Assay results reported in ChEMBL document CHEMBL1201862, “PubChem BioAssay data set” (2004).
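These data come from cells grown in 96-well plates and exposed to compound for 48 hours at five concentrations. At the GI50, growth is halved.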 The source made the active and inactive calls. No stated cut-off is given here; in the data, active = GI50 up to about 1.1 µM and inactive = higher.

Legend:
Assay in all cases: DTP human tumour cell line panel, 48 h
[1] = system: MDA-MB-435
[2] = system: NCI-H460
[3] = system: ACHN
[4] = system: 786-0
[5] = system: Malme-3M
[6] = system: PC-3
[7] = system: SF-539
[8] = system: NCI-H226
[9] = system: OVCAR-3
[10] = system: UACC-62
[11] = system: DU-145
[12] = system: M14
[13] = system: HCT-15
[14] = system: SR
[15] = system: SF-295
[16] = system: A498
[17] = system: SK-OV-3
[18] = system: NCI-H23
[19] = system: SNB-19
[20] = system: OVCAR-8
[21] = system: HT-29
[22] = system: SN12C
[23] = system: IGROV-1
[24] = system: COLO 205
[25] = system: UACC-257
[26] = system: MCF7
[27] = system: SNB-75
[28] = system: U-251
[29] = system: MDA-N
[30] = system: Hs-578T
[31] = system: NCI/ADR-RES
[32] = system: HL-60
[33] = system: SK-MEL-28
[34] = system: OVCAR-4
[35] = system: CAKI-1
[36] = system: HOP-62
[37] = system: SW-620
[38] = system: EKVX
[39] = system: NCI-H522
[40] = system: BT-549
[41] = system: HOP-92
[42] = system: T47D
[43] = system: HCT-116
[44] = system: KM12
[45] = system: RXF 393
[46] = system: OVCAR-5
[47] = system: SF-268
[48] = system: MOLT-4
[49] = system: RPMI-8226
[50] = system: A549
[51] = system: SK-MEL-2
[52] = system: K562
[53] = system: LOX IMVI
[54] = system: MDA-MB-231
[55] = system: UO-31
[56] = system: CCRF-CEM
[57] = system: TK-10
[58] = system: SK-MEL-5

Oc1cccc(-c2nc3ccccc3s2)c1
GI50 [1]: 30.7 µM (inactive) | GI50 [2]: 34 µM (inactive) | GI50 [3]: 41 µM (inactive) | GI50 [4]: 71.6 µM (inactive) | GI50 [5]: 2.99 µM (inactive) | GI50 [6]: 23.2 µM (inactive) | GI50 [7]: 28.7 µM (inactive) | GI50 [8]: 10.8 µM (inactive) | GI50 [9]: 21.6 µM (inactive) | GI50 [10]: 34.8 µM (inactive) | GI50 [11]: 38.7 µM (inactive) | GI50 [12]: 23.2 µM (inactive) | GI50 [13]: 25.5 µM | GI50 [14]: 29.2 µM (inactive) | GI50 [15]: 26.7 µM (inactive) | GI50 [16]: 52.5 µM (inactive) | GI50 [17]: 27.9 µM (inactive) | GI50 [18]: 15.8 µM (inactive) | GI50 [19]: 67.3 µM (inactive) | GI50 [20]: 27.2 µM (inactive) | GI50 [21]: 18.8 µM (inactive) | GI50 [22]: 33.8 µM (inactive) | GI50 [23]: 5.02 µM (inactive) | GI50 [24]: 35.9 µM (inactive) | GI50 [25]: 26.4 µM (inactive) | GI50 [26]: 16.4 µM (inactive) | GI50 [27]: 19 µM (inactive) | GI50 [28]: 39.5 µM (inactive) | GI50 [29]: 27.8 µM (inactive) | GI50 [30]: 15.5 µM (inactive) | GI50 [31]: 21.9 µM (inactive) | GI50 [32]: 47.8 µM (inactive) | GI50 [33]: 74.6 µM (inactive) | GI50 [34]: 19.1 µM (inactive) | GI50 [35]: 23.9 µM (inactive) | GI50 [36]: 22.5 µM (inactive) | GI50 [37]: 57.9 µM (inactive) | GI50 [38]: 5.69 µM (inactive) | GI50 [39]: 17.6 µM (inactive) | GI50 [40]: 33 µM (inactive) | GI50 [41]: 25.5 µM (inactive) | GI50 [42]: 10.2 µM (inactive) | GI50 [43]: 33 µM (inactive) | GI50 [44]: 14.7 µM (inactive) | GI50 [45]: 32.1 µM (inactive) | GI50 [46]: 14.8 µM (inactive) | GI50 [47]: 19.8 µM (inactive) | GI50 [48]: 24.2 µM (inactive) | GI50 [49]: 39.4 µM (inactive) | GI50 [50]: 26.2 µM (inactive) | GI50 [51]: 28.4 µM (inactive) | GI50 [52]: 55.6 µM (inactive) | GI50 [53]: 26.5 µM (inactive) | GI50 [54]: 22.1 µM (inactive) | GI50 [55]: 26.1 µM (inactive) | GI50 [56]: 57 µM (inactive)

N=C(N)NCC(N)C(=O)O (configuration not stated)
GI50 [1]: > 100 µM (inactive) | GI50 [2]: > 100 µM (inactive) | GI50 [3]: > 100 µM (inactive) | GI50 [4]: > 100 µM (inactive) | GI50 [5]: > 100 µM (inactive) | GI50 [6]: > 100 µM (inactive) | GI50 [7]: > 100 µM (inactive) | GI50 [8]: > 100 µM (inactive) | GI50 [9]: > 100 µM (inactive) | GI50 [10]: > 100 µM (inactive) | GI50 [11]: > 100 µM (inactive) | GI50 [12]: > 100 µM (inactive) | GI50 [13]: > 100 µM | GI50 [14]: > 100 µM (inactive) | GI50 [15]: > 100 µM (inactive) | GI50 [16]: > 100 µM (inactive) | GI50 [17]: > 100 µM (inactive) | GI50 [18]: > 100 µM (inactive) | GI50 [19]: > 100 µM (inactive) | GI50 [20]: > 100 µM (inactive) | GI50 [21]: > 100 µM (inactive) | GI50 [22]: > 100 µM (inactive) | GI50 [23]: > 100 µM (inactive) | GI50 [24]: > 100 µM (inactive) | GI50 [25]: > 100 µM (inactive) | GI50 [26]: > 100 µM (inactive) | GI50 [27]: > 100 µM (inactive) | GI50 [28]: > 100 µM (inactive) | GI50 [29]: > 100 µM (inactive) | GI50 [30]: > 100 µM (inactive) | GI50 [31]: > 100 µM (inactive) | GI50 [32]: > 100 µM (inactive) | GI50 [33]: > 100 µM (inactive) | GI50 [34]: > 100 µM (inactive) | GI50 [35]: > 100 µM (inactive) | GI50 [36]: > 100 µM (inactive) | GI50 [37]: > 100 µM (inactive) | GI50 [38]: > 100 µM (inactive) | GI50 [39]: > 100 µM (inactive) | GI50 [40]: > 100 µM (inactive) | GI50 [57]: > 100 µM (inactive) | GI50 [41]: > 100 µM (inactive) | GI50 [42]: > 100 µM (inactive) | GI50 [43]: > 100 µM (inactive) | GI50 [44]: > 100 µM (inactive) | GI50 [45]: > 100 µM (inactive) | GI50 [46]: > 100 µM (inactive) | GI50 [47]: > 100 µM (inactive) | GI50 [49]: > 100 µM (inactive) | GI50 [50]: > 100 µM (inactive) | GI50 [51]: > 100 µM (inactive) | GI50 [58]: > 100 µM (inactive) | GI50 [52]: > 100 µM (inactive) | GI50 [53]: > 100 µM (inactive) | GI50 [54]: > 100 µM (inactive) | GI50 [55]: > 100 µM (inactive)
